Test results as given in US10729759B2, “Fluorocarbon-linked peptide formulation” (priority 2010, dated 2020).
“Also recorded” adds a separate entry of the source. Like-named read-outs stand apart in the source and are kept apart here. Residues, ends and D or L forms follow the SMILES beside them. *: point of attachment. Propanoyl(3-C8F17) = O=C(CCC(F)(F)C(F)(F)C(F)(F)C(F)(F)C(F)(F)C(F)(F)C(F)(F)C(F)(F)F)*

Assays:
[1] = type: physicochemical; details: for Percentage acetic acid (% v/v): minimum concentration for acceptable dispersibility and solubility: FCP 2 μmol/ml after acetic acid dispersion; for Visual appearance after dispersion: at the listed acetic acid concentration, FCP 2 μmol/ml; for Physical stability of formulation at less than 80% (v/v) acetic acid: gel or soluble particulates formed over time
Method: In order to limit the concentration of acetic acid downstream in the formulation process and in the final product, the lowest concentration of acetic acid in water to achieve efficient dispersion and maintain visible solubility was determined for each fluorocarbon-linked peptide. When using mannitol as a cryprotectant, it is important to minimize the acetic acid concentration at the lyophilisation stage in order to achieve a stable and amorphous freeze-dried product. The minimum acetic acid concentration to achieve acceptable dispersibility and solubility of the individual fluorocarbon-linked peptides was determined. The final concentration of fluorocarbon-linked peptide after initial acetic acid dispersion was 2 μmol/ml and after dilution with mannitol, 0.250 μmol/ml.

[2] = type: physicochemical; details: for Further dilution in Mannitol:Water Solubility: FCP 0.167 mM, 1.33% (w/v) mannitol, cloudiness / particulates; for Dispersion in Water Solubility: FCP 1.333 mM in water, vortexed and sonicated, cloudiness (Clear/Cloudy−/Cloudy/Cloudy+) / particulates
Method: The solubility of each FCP in water was assessed. Each FCP was dispersed in 300 μl of water to a final concentration of 1.333 mM and vortexed and sonicated. The typical dispersion conditions were four sequences of three minutes bath sonication interspersed by 30 seconds vortexing. After inspection, the resulting solution was diluted with a mannitol solution (a candidate lyophilisation medium, final concentration of peptide 0.167 mM, 1.33% (w/v) mannitol). Solubility was assessed by visual observation of the cloudiness of the resulting dispersion (scaled: Clear/Cloudy−/Cloudy/Cloudy+) and presence of particulates. […]

[3] = for Ease of solubility, Cycle 1 Vortexing: 10 mg net/ml in 10% (FCP1, 2, 4, 5) or 80% (FCP9, 8) acetic acid; for Ease of solubility, Cycle 1 Sonication / Ease of solubility, Cycle 2 Sonication / Ease of solubility, Cycle 2 Vortexing / Ease of solubility, Cycle 3 Sonication / Ease of solubility, Cycle 3 Vortexing: 10 mg net/ml in 10% or 80% acetic acid; for Visual appearance after dispersion: 10 mg net/ml in AcOH 10% or 80%
[4] = type: physicochemical; details: 1.33% mannitol, 0.22 μm PVDF filter; for YIELD % of each FCP following sterile filtration, MIX 2: MIX 2 dispersed in water; for YIELD % of each FCP following sterile filtration, MIX 1: MIX 1 dispersed in water

| SMILES | Percentage acetic acid (% v/v): minimum concentration for acceptable dispersibility and solubility [1] [% v/v] | Visual appearance after dispersion [1] | Further dilution in Mannitol:Water Solubility [2] | Dispersion in Water Solubility [2] | Ease of solubility, Cycle 1 Vortexing [3] | Ease of solubility, Cycle 1 Sonication [3] | Ease of solubility, Cycle 2 Sonication [3] | Ease of solubility, Cycle 2 Vortexing [3] | Ease of solubility, Cycle 3 Sonication [3] | Ease of solubility, Cycle 3 Vortexing [3] | Visual appearance after dispersion [3] | YIELD % of each FCP following sterile filtration, MIX 2 [4] [%] | YIELD % of each FCP following sterile filtration, MIX 1 [4] [%] | Physical stability of formulation at less than 80% (v/v) acetic acid [1] |
| --- | --- | --- | --- | --- | --- | --- | --- | --- | --- | --- | --- | --- | --- | --- |
| CC[C@H](C)[C@H](NC(=O)[C@@H]1CCCN1C(=O)[C@H](C)NC(=O)[C@@H](N)CCCCNC(=O)CCC(F)(F)C(F)(F)C(F)(F)C(F)(F)C(F)(F)C(F)(F)C(F)(F)C(F)(F)F)C(=O)N[C@@H](CCSC)C(=O)N[C@@H](Cc1ccccc1)C(=O)N[C@@H](CO)C(=O)N[C@@H](CC(N)=O)C(=O)N[C@@H](CCCCN)C(=O)N[C@@H](CCSC)C(=O)N[C@@H](C)C(=O)N[C@@H](CCCNC(=N)N)C(=O)N[C@@H](CC(C)C)C(=O)NCC(=O)N[C@@H](CCCCN)C(=O)NCC(=O)N[C@@H](Cc1ccc(O)cc1)C(=O)N[C@@H](CCSC)C(=O)N[C@@H](Cc1ccccc1)C(=O)N[C@@H](CCC(=O)O)C(=O)N[C@@H](CO)C(=O)N[C@@H](CCCCN)C(=O)N[C@@H](CCCNC(=N)N)C(=O)N[C@@H](CCSC)C(=O)N[C@@H](CCCCN)C(=O)N[C@@H](CC(C)C)C(=O)N[C@@H](CCCNC(=N)N)C(=O)N[C@H](C(=O)N[C@@H](CCC(N)=O)C(=O)N[C@H](C(=O)N1CCC[C@H]1C(=O)N[C@@H](C)C(=O)N[C@@H](CCC(=O)O)C(=O)N[C@@H](CCSC)C(=O)N[C@@H](CC(C)C)C(=O)N[C@@H](C)C(N)=O)[C@@H](C)CC)[C@@H](C)O [FCP2] | 10 | Clear | fully soluble; also recorded: Clear/No Particulates | Cloudy−/No Particulates | Clear | Clear | Clear | Clear | Clear | Clear | Clear | 97.3 |  |  |
| CC[C@H](C)[C@H](NC(=O)[C@H](CC(C)C)NC(=O)[C@H](C)NC(=O)[C@H](CO)NC(=O)[C@H](CCCNC(=N)N)NC(=O)[C@H](C)NC(=O)[C@H](CC(C)C)NC(=O)[C@H](Cc1ccccc1)NC(=O)[C@@H](NC(=O)[C@H](CC(C)C)NC(=O)[C@H](CC(=O)O)NC(=O)[C@H](CCC(=O)O)NC(=O)[C@@H](NC(=O)[C@H](CCC(=O)O)NC(=O)[C@H](C)NC(=O)[C@H](CC(N)=O)NC(=O)CNC(=O)[C@@H]1CCCN1C(=O)[C@H](CC(N)=O)NC(=O)[C@H](CCCNC(=N)N)NC(=O)[C@H](CO)NC(=O)[C@H](CCC(=O)O)NC(=O)[C@H](CCCNC(=N)N)NC(=O)[C@@H](NC(=O)[C@H](CCC(N)=O)NC(=O)[C@H](CC(=O)O)NC(=O)[C@@H](N)CCCCNC(=O)CCC(F)(F)C(F)(F)C(F)(F)C(F)(F)C(F)(F)C(F)(F)C(F)(F)C(F)(F)F)C(C)C)[C@@H](C)CC)[C@@H](C)CC)C(=O)N[C@@H](CC(C)C)C(=O)N[C@@H](CCCNC(=N)N)C(=O)NCC(=O)N[C@@H](CO)C(=O)N[C@H](C(=O)N[C@@H](C)C(=O)N[C@@H](Cc1c[nH]cn1)C(=O)N[C@@H](CCCCN)C(=O)N[C@@H](CO)C(N)=O)C(C)C [FCP4] | 10 | Clear | fully soluble; also recorded: Clear/No Particulates | fully soluble; also recorded: Clear/No Particulates | Clear | Clear | Clear | Clear | Clear | Clear | Clear | 82.3 | 25.1 |  |
| CC[C@H](C)[C@H](NC(=O)[C@H](Cc1ccc(O)cc1)NC(=O)[C@@H](NC(=O)[C@H](CO)NC(=O)[C@H](CO)NC(=O)[C@@H](NC(=O)CNC(=O)CNC(=O)[C@H](C)NC(=O)[C@@H](NC(=O)[C@@H]1CCCN1C(=O)[C@H](CC(C)C)NC(=O)[C@H](Cc1ccccc1)NC(=O)[C@H](CCCNC(=N)N)NC(=O)[C@@H](NC(=O)[C@H](CCCCN)NC(=O)[C@H](CCCNC(=N)N)NC(=O)[C@@H](NC(=O)[C@H](CC(C)C)NC(=O)[C@H](CCC(=O)O)NC(=O)[C@H](CCCNC(=N)N)NC(=O)[C@H](CCC(=O)O)NC(=O)[C@H](CC(C)C)NC(=O)[C@H](CCSC)NC(=O)[C@H](Cc1ccc(O)cc1)NC(=O)[C@H](C)NC(=O)[C@@H](NC(=O)[C@@H](N)CCCCNC(=O)CCC(F)(F)C(F)(F)C(F)(F)C(F)(F)C(F)(F)C(F)(F)C(F)(F)C(F)(F)F)C(C)C)C(C)C)[C@@H](C)O)C(C)C)[C@@H](C)O)C(C)C)C(=O)N[C@@H](CCC(=O)O)C(=O)N[C@H](C(=O)N[C@@H](CC(C)C)C(=O)N[C@@H](Cc1c[nH]cn1)C(=O)N[C@@H](CC(C)C)C(=O)N[C@H](C(=O)N[C@@H](CCC(N)=O)C(=O)NCC(N)=O)[C@@H](C)O)C(C)C [FCP8] (H-K(Propanoyl(3-C8F17))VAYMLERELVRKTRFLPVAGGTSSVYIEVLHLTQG-NH2) | 80 | Clear | insoluble; also recorded: Cloudy/Particulates | Cloudy/Particulates | Particulates+ | Some |  | Some | Clear |  | Clear | 25.3 |  | physically unstable over time |
| CC[C@H](C)[C@H](NC(=O)[C@H](CO)NC(=O)[C@H](CC(C)C)NC(=O)[C@@H](NC(=O)[C@H](CC(N)=O)NC(=O)[C@H](CCCNC(=N)N)NC(=O)[C@H](Cc1ccccc1)NC(=O)[C@H](Cc1c[nH]c2ccccc12)NC(=O)[C@H](CCC(=O)O)NC(=O)[C@@H]1CCCN1C(=O)[C@H](CCC(N)=O)NC(=O)[C@H](CC(N)=O)NC(=O)[C@H](CCCNC(=N)N)NC(=O)[C@@H](NC(=O)[C@@H](NC(=O)[C@H](Cc1ccc(O)cc1)NC(=O)[C@@H](N)CCCCNC(=O)CCC(F)(F)C(F)(F)C(F)(F)C(F)(F)C(F)(F)C(F)(F)C(F)(F)C(F)(F)F)[C@@H](C)CC)[C@@H](C)O)C(C)C)C(=O)N[C@@H](C)C(=O)N1CCC[C@H]1C(=O)N[C@H](C(=O)N[C@@H](CCSC)C(=O)N[C@@H](Cc1ccccc1)C(=O)N[C@@H](CO)C(=O)N[C@@H](CC(N)=O)C(=O)N[C@@H](CCCCN)C(=O)N[C@@H](CCSC)C(=O)N[C@@H](C)C(=O)N[C@@H](CCCNC(=N)N)C(=O)N[C@@H](CC(C)C)C(=O)NCC(=O)N[C@@H](CCCCN)C(=O)NCC(=O)N[C@@H](Cc1ccc(O)cc1)C(=O)N[C@@H](CCSC)C(=O)N[C@@H](Cc1ccccc1)C(=O)N[C@@H](CCC(=O)O)C(N)=O)[C@@H](C)CC [FCP9] | 80 | Clear | partially soluble; also recorded: Clear/Particulates | Cloudy−/Particulates | Particulates− | Clear | Clear | Clear | Clear | Clear | Clear |  | 22.9 | physically unstable over time |
